Measurements published in ChEMBL document CHEMBL3507680, “University of Dundee, Gates Library screen for HepG2 cell viability”.

Assay: Human HepG2 cell viability assay in 384 well format
Type: toxicity, cell-based
Parameters: dose 125 nL, time 70.5 hour; concentration not given beside the values
Conditions: HepG2 cells, read-out: Inhibition

SMILES | cytotoxicity at 70.5 h [%]
Cc1ccccc1C(N)c1ccncc1 (stereo not drawn) | -3.67
Cn1c(=O)c2sccc2n(Cc2ccccc2)c1=O | 2.6
CC1CCc2nc(O)c(C(=O)NCCCN3CCN(C)CC3)cc2C1 (stereo not drawn) | -7.22
Cc1csc(CCNC(=O)c2cc3c(nc2O)CCC(C)C3)n1 (stereo not drawn) | -8.45
COC(=O)C(C)NC(=O)CSCc1nc(O)c2cc(C(C)C)sc2n1 (stereo not drawn) | 6.75
COc1cc(C2SCC(=O)Nc3ccsc32)cc(OC)c1OC (stereo not drawn) | -14.5
O=c1c2cnc(N3CCCC3)nc2ccn1-c1cccc(C(F)(F)F)c1 | -5.84
Cc1ccc(Sc2ccc(N3CCC(C(=O)O)CC3)nn2)cc1 | 33.4
Cc1c(C)n(CC(O)CN2CCC(C)CC2)c2c(Cl)cccc12 (stereo not drawn) | 14.8
Cc1c(C)n(CC(O)CN2CCC(O)CC2)c2c(Cl)cccc12 (stereo not drawn) | 16.5
Cc1cc(C)c(C#N)c(N2CCC(Cc3ccccc3)CC2)n1 | -2.18
COc1ncc(C(=O)NCc2ccccc2)cn1 | 0.247
CCN(CC)C(=O)Cn1c(C)cc2nc(SC)n(CC(C)C)c(=O)c21 | -6.31
CSc1nc2cc(C)n(CC(=O)NC(C)C)c2c(=O)n1CC(C)C | -4.16
CSc1nc2cc(C)n(CC(=O)N3CCCC3)c2c(=O)n1CC(C)C | -5.31
CCOC(=O)CSc1ccc(-c2nc(C)no2)cn1 | 1.96
Cc1noc(C2(NC(=O)c3cccnc3O)CCCCC2)n1 | 2.75
COc1cccc(Cn2c(=O)n(C)c(=O)c3sccc32)c1 | 0.75
O=C(O)C1CCN(c2ccc(Sc3ccc(Br)cc3)nn2)CC1 | 26.1
O=c1[nH]nc2nc(N3CCOCC3)ccn12 | -1
Cc1ccc(Sc2ccc(N3CCCC(C(=O)O)C3)nn2)cc1 (stereo not drawn) | 0.439
O=c1[nH]nc2nc(N3CCSCC3)ccn12 | 0.517
Oc1nnc(-c2ccccc2)c2sc(N3CCCCC3)nc12 | 0.482

SMILES | cytotoxicity at 70.5 h [%]
CCOC(=O)c1cn(CC(O)c2ccccc2OC)nn1 (stereo not drawn) | 7.58
COc1cc(Cl)c(C)cc1-n1nnc(C(=O)O)c1-c1ccncc1 | 28.1
CC(C)=CCC/C(C)=C\CNCc1ccco1 | 2.6
O=C(O)c1ccc2[nH]cc(CN3CCOCC3)c2c1 | 2.68
CC(C)n1[nH]c(=O)c2c1NC(=O)CC2C1CCCCC1 (stereo not drawn) | 4.13
O=C1COc2ccc(S(=O)(=O)NC3CC3)c3c2N1CCC3 | 7.26
COCc1nc2nc(O)c3c(n2n1)NC(=O)CC3c1ccc(SC)cc1 (stereo not drawn) | 1.29
CCc1nc(C#N)c(N2CCC(c3nc(-c4ccccc4)no3)CC2)o1 | 0.267
Cc1noc(C2CCN(c3oc(C)nc3C#N)CC2)n1 | 2.04
CC(C)CN1C(=O)CC(N2CCN(c3ccc(F)cc3)CC2)C1=O (stereo not drawn) | 13.6
COCCCN1C(=O)CC(N2CCN(c3ccc(F)cc3)CC2)C1=O (stereo not drawn) | -1.4
COCCNC(=O)c1sccc1N(C)S(=O)(=O)c1ccc(Cl)cc1 | -22.2
O=c1[nH]c2nc(N3CCOCC3)ncc2c(=O)n1-c1cccc(F)c1 | -2.92
O=c1[nH]c2nc(N3CCSCC3)ncc2c(=O)n1-c1ccc(F)cc1 | -16.9
CCN(c1ccc(C(=O)NCCN2CCOCC2)cc1)S(=O)(=O)CC | -25.1
O=C(c1ccccc1-n1cnnn1)N1CCC2(CC1)OCCO2 | -1.41
CCCn1[nH]c(CNc2ccccc2)nc1=O | -2.36
O=C(Nc1ccc(Cl)cn1)c1nn(C2CCS(=O)(=O)C2)c2c1CCCC2 (stereo not drawn) | -23
COc1ccc(OC)c(C2SCC(=O)Nc3n[nH]cc32)c1 (stereo not drawn) | -9.28
O=C(Nc1ccc(Cl)cc1)c1nn(C2CCS(=O)(=O)C2)c2c1CCCC2 (stereo not drawn) | -19.1
Cc1cc(O)c(OCC(=O)/N=c2\[nH]c(C)cs2)cn1 | -2.18
CC(C)(C)NC(=O)c1nn(C2CCS(=O)(=O)C2)c2c1CCCC2 (stereo not drawn) | -18.7
O=C(c1cc(-n2cnnn2)ccc1Cl)N1CCCCCC1 | -2.04

SMILES | cytotoxicity at 70.5 h [%]
CC(C)NC(=O)c1ccc2c(c1)nc1n2CCN(Cc2ccco2)C1 | -10.4
CCOC(=O)c1s/c(=N\C(=O)COc2cnc(C)cc2O)[nH]c1C | -19
Cc1ccc(N2N=C(C(=O)NCC3CC3)S(=O)(=O)c3cccnc32)cc1 | -8.14
CCc1c(C(=O)O)nnn1-c1ccc(C)cc1C | -17.4
O=C1c2cnc(N3CCOCC3)nc2CN1c1ccc2c(c1)OCO2 | -5.67
CCn1nccc1CNC(=O)C1CCCC1 | -6.56
Cc1ncsc1C(=O)N1CCc2nnc(C3CCCCN3C)n2CC1 (stereo not drawn) | -2.05
CN(C)c1cc(CC(NC(=O)C2CC2)c2ccccc2)nc(C2CC2)n1 (stereo not drawn) | 16.9
CN(C)CC1(O)CCN(C(=O)Cc2ccc3c(c2)CCC3)C1 (stereo not drawn) | 0.63
c1cnc(CC2COCCN(C3CCCCC3)C2)cn1 (stereo not drawn) | 1.48
CN(C)C(=O)c1cn[nH]c1C1CCCN1Cc1c[nH]cn1 (stereo not drawn) | 0.232
Cc1cn[nH]c1C1COCCN1C(=O)c1cc(F)ccc1F (stereo not drawn) | 5.9
Cc1nc2c(c(=O)[nH]1)CCN(Cc1ccc3c(c1)CCCN3C)C2 | 0.602
Cc1nc(=O)c2ccccc2n1C1=CCN(CC(=O)N2CCCC2)CC1 | -1.43
CNC(=O)CCc1cccc(C2CCCN(c3cc(C)ncn3)C2)n1 (stereo not drawn) | -2.33
CN(C)C(=O)c1cn[nH]c1C1CCCN1Cc1cncn1C (stereo not drawn) | -0.0963
CC(C)C(=O)N1CCCC(Cc2cccnc2)C1 (stereo not drawn) | -0.448
CCS(=O)(=O)N1CCC(c2nn(CCN(C)C)c3ncccc23)C1 (stereo not drawn) | -1.3
Cc1nc(CN(C)C(=O)CN(C)C)nc2c1CCC(=O)N2CCC(C)C | -0.759
Cc1nc(NC2CCN(S(=O)(=O)c3ccccc3)CC2)[nH]c(=O)c1C | -9.46
Cc1cc(C)n(CCNCc2cc(-c3ccccc3)c[nH]c2=O)n1 | -9.26
O[C@@H]1C[C@H]2CN(CC3CCCCC3)[C@H](Cc3ccccc3)CN2C1 | 24.4
Cc1nn(C)cc1CN1CCc2nc3sccc3c(=O)n2CC1 | -9.47

SMILES | cytotoxicity at 70.5 h [%]
CCn1cncc1CN1CCc2nc3sccc3c(=O)n2CC1 | -5.29
Cc1ccc(-c2nc(C3CCN(C(=O)c4ccn(C)n4)CC3)no2)cn1 | -10.5
CCC(=O)N1CCC(c2nc(N3CCCCC3)ncc2S(C)(=O)=O)CC1 | -2.83
CCN(CC)C(=O)CN1CCC2(C=Cc3cc(Cl)c(C)cc3O2)CC1 | 7.43
CS(=O)(=O)c1cnc(N2CCCC2)nc1C1CCN(C(=O)C2CC2)CC1 | 0.997
COc1ccc(C(C)N(C)Cc2c(C(C)C)[nH]c3ncccc23)cc1 (stereo not drawn) | 20.8
O=C(NCCCO)C1(CC2CC(c3ccc(F)cc3)=NO2)CCOCC1 (stereo not drawn) | -5.38
CCc1ncc(CN2C[C@@H]3C[C@@H](O)CN3C[C@@H]2Cc2ccccc2)cn1 | -5.41
Cc1cc(Nc2cnccn2)cc(C2CCCNC2)n1 (stereo not drawn) | -2.88
Cc1cc(N(C)C)nc(C2COCCN2Cc2cscn2)n1 (stereo not drawn) | 18
Cc1cc(NC2CC3(CCN(Cc4ncccc4F)C3)C2)ncn1 (stereo not drawn) | -3.79
Cc1ocnc1C(=O)N(C)[C@@H]1CC[C@@H](Oc2ccccc2)[C@@H]1O | -5.13
Cc1nn(C)cc1S(=O)(=O)N[C@@H]1CCC[C@@H](N2CCCC2)[C@@H]1O | -9.32
Cc1nn(C)cc1S(=O)(=O)N[C@@H]1CC[C@@H](n2ccnc2C)[C@@H]1O | 17.7
Cc1nccn1[C@@H]1CC[C@@H](NC(=O)CCOc2ccccc2)[C@H]1O | 16.9
CN(C)CCn1nc(C2CCN(Cc3ccccc3)C2)c2cccnc21 (stereo not drawn) | 31.8
COCC(=O)N1CCCCC1c1nc(CN(C)C(C)=O)cc(N(C)C)n1 (stereo not drawn) | 50.7
Nc1ncc(-c2ccc(C(F)(F)F)cc2)c(C2CCCNC2)n1 (stereo not drawn) | 0.61
CN1CCN([C@@H]2CN(C(=O)c3cc4ccc(F)cc4[nH]3)C[C@H]2O)CC1 | -3.6
CCC(=O)N1CCCCC1c1nc(CN(C)C(C)=O)cc(N(C)C)n1 (stereo not drawn) | -1.37
CN(C)[C@@H]1CN(C(=O)c2cc3cccc(F)c3[nH]2)C[C@H]1O | -2.67
Cc1ncc(CNC(=O)Cc2cccs2)c(C2CCCN2C)n1 (stereo not drawn) | -4.94
Cc1ncc(CNC(=O)CCc2c(C)noc2C)c(C2CCCN2C)n1 (stereo not drawn) | -3.48

SMILES | cytotoxicity at 70.5 h [%]
O=C(Cc1cccs1)N1CCCCC1c1ccn2ccnc2n1 (stereo not drawn) | -5.26
Cc1ncc(CNC(=O)Cc2ccsc2)c(C2CCCN2C)n1 (stereo not drawn) | -5.12
Cc1ccccc1CN1CCOC(c2nccc(CN(C)C)n2)C1 (stereo not drawn) | -8.08
CN(C)Cc1ccnc(C2CN(CCCc3ccccc3)CCO2)n1 (stereo not drawn) | -6.75
CN(C)CC(=O)N1CCCC1c1cncc(Oc2ccc(F)cc2)n1 (stereo not drawn) | 11.5
Cc1noc(C)c1-c1cccc(CC2CCN(C(=O)CN)C2)n1 (stereo not drawn) | -4.83
Cc1cccc(Nc2nccnc2C2CCCN(CC(=O)N(C)C)C2)n1 (stereo not drawn) | -7.55
Nc1nc(C2CCN(C(=O)c3cnco3)CC2)cs1 | -5.18
CC(=O)N1CCC(c2nccnc2Nc2ncc(C)s2)CC1 | -10.6
COc1cc(CN)c(OC)c2c1OCO2 | -15.1
CC(C)(CO)NCc1ccc(OCc2ccc3c(c2)OCCO3)cc1 | -2.91
c1cc(NCc2ccncc2)nc(C2CCCNC2)c1 (stereo not drawn) | -1.2
CC(C)N(C(=O)Cn1c(-c2ccco2)cc2cccnc21)C(C)C | -15.1
O=C(Cn1c(-c2ccco2)cc2cccnc21)N1CCCC1 | -8.97
Cc1csc(C(Cc2ccsc2)NC(=O)CN(C)Cc2ccccn2)n1 (stereo not drawn) | -5
CN(CC(=O)NC(Cc1ccsc1)c1cccnc1)Cc1cccnc1 (stereo not drawn) | 19.4
CN(C)c1ncc(-c2ccc(C(N)=O)cc2)c(C2CCNC2)n1 (stereo not drawn) | -2.25
Cc1cc(CCC(=O)N(C)C)nc(C2CCCCN2)n1 (stereo not drawn) | -5.77
COc1cccc(CN(Cc2ncc[nH]2)Cc2ccco2)c1 | -2.53
COc1ccc(OC)c(CN(Cc2ccco2)Cc2[nH]cnc2C)c1 | -10.2
Cc1c[nH]nc1C1CCCN1Cc1nccn1C (stereo not drawn) | -4.65
